From US20240400521A1, “QUINAZOLINE COMPOUND, COMPOSITION, AND APPLICATION THEREOF” (BEIJING SCITECH-MQ PHARMACEUTICALS LIMITED, priority 2021, published 2024)

Columns and labels:
HCC-827 cells = test: Inhibition of cell proliferation, CTG method, HCC-827; format: cell-based; conditions: Homo sapiens, HCC827, 72 hours
Excerpt: (§1) The present application examined the in vitro anti-proliferative activity of the compounds of the present disclosure against in vitro cultured HCC-827, Ba/F3-EGFR-VIII and Ba/F3 EGFR D770_N771insSVD cell lines by CTG method.
(§2) Reagents and consumables: RPMI1640 (ThermoFisher, Cat. No. C11875500BT); DMEM (ThermoFisher, C11995500BT); fetal bovine serum (Hyclone, Cat. No. SV30087.03); 0.25% trypsin-EDTA (ThermoFisher, Cat. No. 25200072); penicillin-streptomycin (Hyclone, Cat. No. SV30010); DMSO (Life Science, Cat. No. 0231-500ML); CTG assay kit (Promega, Cat. No. G9243); 96-well plate (Corning, Cat. No. 3599); multifunctional plate reader (Perkin Elmer, Cat. No. Envision)
(§3) Cell lines: HCC-827 (from ATCC), Ba/F3-EGFR-VIII and Ba/F3 EGFR D770_N771insSVD (all from KYinno Biotechnology (Beijing) Co., Ltd.); all of the above cells were cultured with RPMI1640 medium containing 10% fetal bovine serum, 100 U/mL penicillin, and 100 μg/mL streptomycin in the culture process, and HCC-827 was cultured with DMEM medium containing 10% fetal bovine serum, 100 U/mL penicillin, and 100 μg/mL streptomycin.
(§4) • 1. The assay compound was dissolved with DMSO to form a stock solution and a gradient dilution was performed, followed by dilution with the corresponding medium to obtain a solution with 5-fold working concentration. • 2. Cells in logarithmic growth phase were adjusted to specific cell densities by dilution with culture medium, and 80 μL of cell suspension was added to a 96-well plate, such that plating densities of cells of HCC-827, Ba/F3-EGFR-VIII and Ba/F3 EGFR D770_N771insSVD were all 3000 cells/well. The cells of Ba/F3-EGFR-VIII and Ba/F3 EGFR D770_N771insSVD were used directly in the next step (treatment with compound), whereas the HCC-827 needed to be cultured overnight in a 37° C., 5% carbon dioxide gas incubator to adhere to the wall, and then treated with compounds. • 3. 20 μL of compound solution was added to each well of the 96-well plate that had been inoculated with cells. The highest concentration of the assayed compound was 10 μM, 4-fold serial dilution, a total of 9 concentrations, and duplicate wells. A control group without compound was also set up. • 4. The cells were cultured for another 72 hours, and then cell viability was detected by CTG assay kit. Signal values were read with a multifunctional plate reader (Perkin Elmer). GraphPad Prism software was used to create a dose-response curve and IC50 was calculated.

HER2 kinase = target: T1, HER2 kinase (Homo sapiens, UniProt P04626); test: HER2 kinase assay (ULight peptide / Eu-PT66 antibody detection); format: biochemical
T1 construct: purchased Carna Biosciences 08-016
T1 sequence (P04626 23-1255): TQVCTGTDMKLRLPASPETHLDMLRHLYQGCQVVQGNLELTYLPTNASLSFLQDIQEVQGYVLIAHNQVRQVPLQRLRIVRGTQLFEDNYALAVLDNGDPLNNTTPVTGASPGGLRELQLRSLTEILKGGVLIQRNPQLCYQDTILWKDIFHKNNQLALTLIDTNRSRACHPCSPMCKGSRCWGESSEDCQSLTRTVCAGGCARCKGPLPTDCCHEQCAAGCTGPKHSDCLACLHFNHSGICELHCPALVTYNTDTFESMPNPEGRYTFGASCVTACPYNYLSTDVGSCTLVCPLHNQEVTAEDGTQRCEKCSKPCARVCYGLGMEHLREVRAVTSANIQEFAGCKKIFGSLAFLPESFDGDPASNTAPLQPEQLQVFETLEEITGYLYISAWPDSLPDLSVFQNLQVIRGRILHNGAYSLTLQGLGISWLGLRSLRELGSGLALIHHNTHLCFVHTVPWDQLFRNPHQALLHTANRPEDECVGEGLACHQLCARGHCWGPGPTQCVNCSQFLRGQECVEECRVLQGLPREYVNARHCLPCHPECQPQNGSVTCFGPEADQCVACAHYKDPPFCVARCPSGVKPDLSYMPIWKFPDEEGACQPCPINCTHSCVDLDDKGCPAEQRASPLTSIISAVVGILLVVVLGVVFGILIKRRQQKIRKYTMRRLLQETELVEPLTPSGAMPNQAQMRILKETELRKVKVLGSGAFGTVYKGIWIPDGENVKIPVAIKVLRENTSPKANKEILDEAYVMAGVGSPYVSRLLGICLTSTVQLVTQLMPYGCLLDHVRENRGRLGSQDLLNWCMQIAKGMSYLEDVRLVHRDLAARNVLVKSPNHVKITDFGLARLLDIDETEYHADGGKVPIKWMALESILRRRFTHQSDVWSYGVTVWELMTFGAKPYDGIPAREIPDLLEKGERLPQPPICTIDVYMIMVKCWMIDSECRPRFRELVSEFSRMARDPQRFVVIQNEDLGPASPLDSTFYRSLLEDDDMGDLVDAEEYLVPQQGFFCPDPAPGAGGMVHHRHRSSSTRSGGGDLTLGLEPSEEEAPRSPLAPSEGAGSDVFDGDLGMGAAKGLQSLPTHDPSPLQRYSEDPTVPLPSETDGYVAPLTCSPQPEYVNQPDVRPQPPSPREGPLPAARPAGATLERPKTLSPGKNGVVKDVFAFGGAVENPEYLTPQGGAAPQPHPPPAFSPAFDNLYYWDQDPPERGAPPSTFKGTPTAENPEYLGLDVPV
Excerpt: (§5) Reagents and consumables: ULight™-labeled Ploy GT Peptide (Perkin Elmer, Cat. No. TRF-0100-M); ULight™-labeled JAK-1 (Try1023) Peptide (Perkin Elmer, Cat. No. TRF-0121-M); Eu-W1024-labeled Anti-Phosphotyrosine Antibody (PT66) (Perkin Elmer, Cat. No. AD0068); 10×Detection Buffer (Perkin Elmer, Cat. No. CR97-100); HER2 Kinase (Carna Biosciences, Cat. No. 08-016); EGFR kinase (Carna Biosciences, Cat. No. 08-115); HEPES (GIBCO, Cat. No. 15630-080); EGTA (Sigma, Cat. No. 03777-10G); EDTA (Sigma, Cat. No. EDS-100G); MgCl2 (Sigma, Cat. No. 63069-100ML); DTT (Sigma, Cat. No. 43816-10ML); Tween-20 (Sigma, Cat. No. P7949-100ML); DMSO (Life Science, Cat. No. 0231-500ML); 384-well plates (Perkin Elmer, Cat. No. 607290); multifunctional plate reader (Perkin Elmer, Cat. No. Envision)
(§6) Preparation of compound solution: The assay compound was dissolved in DMSO to form a 10 mM stock solution. Prior to use, the compound was diluted to 0.25 mM in DMSO (100 times the final concentration of the diluent) and then subjected to a 3-fold concentration gradient dilution to obtain a total of 11 concentrations. The solution was diluted with buffer to a diluent with 4× the final concentration when the drug was added.
HER2 kinase assay: buffer was prepared, and 40 nM 4× HER2 kinase solution, 40 μM 4× ATP solution, and 400 nM 4×ULight™-labeled Ploy GT Peptide substrate solution were prepared using the buffer. After the preparation was completed, the enzyme was mixed with different concentrations of compounds pre-prepared by dilution, and the mixture was left to stand at room temperature for 5 min. Each concentration was performed in duplicate. The corresponding substrate and ATP were added and the mixture was reacted at room temperature for 120 minutes (with negative and positive controls). After completion of the reaction, PT66 detection antibody was added. The mixture was incubated at room temperature for 60 minutes, and then detected by Envision.
(§7) Data Calculation: the reading of well and inhibition rate were calculated using Excel, wherein reading of well=10000*(well EU665 value)/(well EU615 value), and inhibition rate=[(reading of positive control well−reading of assay well)/(reading of positive control well−reading of negative control well)]*100%. Compound concentrations and corresponding inhibition rates were input into GraphPad Prism for processing to calculate IC50 values.

[1] = target: Ba/F3 EGFR D770_N771insSVD cells (Homo sapiens, UniProt P00533, DUP768-770, cells depend on it); test: Inhibition of cell proliferation, CTG method, Ba/F3 EGFR D770_N771insSVD; format: cell-based; conditions: 72 hours, read-out: Ba/F3 EGFR D770_N771insSVD IC50
Ba/F3 EGFR D770_N771insSVD cells, sequence (P00533 with tags, fused parts or gaps DUP768-770): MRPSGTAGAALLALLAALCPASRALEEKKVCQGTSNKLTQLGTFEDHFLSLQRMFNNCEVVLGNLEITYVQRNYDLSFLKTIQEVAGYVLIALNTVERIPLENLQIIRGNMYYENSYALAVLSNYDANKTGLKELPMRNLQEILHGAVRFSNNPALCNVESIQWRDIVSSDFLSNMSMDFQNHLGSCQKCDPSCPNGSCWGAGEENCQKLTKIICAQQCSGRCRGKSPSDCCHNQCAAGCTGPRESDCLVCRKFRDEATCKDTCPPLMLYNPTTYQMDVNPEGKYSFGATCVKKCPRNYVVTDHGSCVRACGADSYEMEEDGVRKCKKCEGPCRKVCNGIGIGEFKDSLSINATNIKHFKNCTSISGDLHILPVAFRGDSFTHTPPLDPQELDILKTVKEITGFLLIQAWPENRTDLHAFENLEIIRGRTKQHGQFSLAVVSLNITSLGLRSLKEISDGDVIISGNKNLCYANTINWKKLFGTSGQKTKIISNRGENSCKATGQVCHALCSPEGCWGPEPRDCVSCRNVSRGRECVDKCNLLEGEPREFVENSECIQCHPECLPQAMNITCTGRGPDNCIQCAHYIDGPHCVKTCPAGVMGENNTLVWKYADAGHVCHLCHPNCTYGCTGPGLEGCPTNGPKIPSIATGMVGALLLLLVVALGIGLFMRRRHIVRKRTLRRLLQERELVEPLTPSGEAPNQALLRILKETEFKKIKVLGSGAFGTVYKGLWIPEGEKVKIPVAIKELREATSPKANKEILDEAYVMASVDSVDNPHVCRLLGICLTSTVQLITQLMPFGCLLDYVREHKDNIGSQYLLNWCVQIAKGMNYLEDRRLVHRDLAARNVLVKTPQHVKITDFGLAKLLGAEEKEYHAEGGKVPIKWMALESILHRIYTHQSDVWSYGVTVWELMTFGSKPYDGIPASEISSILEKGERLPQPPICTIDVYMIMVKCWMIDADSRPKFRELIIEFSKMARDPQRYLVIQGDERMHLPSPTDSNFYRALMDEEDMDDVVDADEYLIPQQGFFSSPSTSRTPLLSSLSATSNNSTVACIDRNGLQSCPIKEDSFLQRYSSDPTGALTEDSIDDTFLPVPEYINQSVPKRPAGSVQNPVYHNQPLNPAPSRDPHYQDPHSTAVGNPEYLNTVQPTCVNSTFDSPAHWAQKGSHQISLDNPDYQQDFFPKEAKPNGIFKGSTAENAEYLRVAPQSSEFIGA
Excerpt: as §1, §2, §3, §4

EGFR^WT kinase = target: T2, EGFR^WT kinase (Homo sapiens, UniProt P00533); test: EGFR^WT kinase assay (ULight peptide / Eu-PT66 antibody detection); format: biochemical
T2 construct: purchased Carna Biosciences 08-115
T2 sequence (P00533 25-1210): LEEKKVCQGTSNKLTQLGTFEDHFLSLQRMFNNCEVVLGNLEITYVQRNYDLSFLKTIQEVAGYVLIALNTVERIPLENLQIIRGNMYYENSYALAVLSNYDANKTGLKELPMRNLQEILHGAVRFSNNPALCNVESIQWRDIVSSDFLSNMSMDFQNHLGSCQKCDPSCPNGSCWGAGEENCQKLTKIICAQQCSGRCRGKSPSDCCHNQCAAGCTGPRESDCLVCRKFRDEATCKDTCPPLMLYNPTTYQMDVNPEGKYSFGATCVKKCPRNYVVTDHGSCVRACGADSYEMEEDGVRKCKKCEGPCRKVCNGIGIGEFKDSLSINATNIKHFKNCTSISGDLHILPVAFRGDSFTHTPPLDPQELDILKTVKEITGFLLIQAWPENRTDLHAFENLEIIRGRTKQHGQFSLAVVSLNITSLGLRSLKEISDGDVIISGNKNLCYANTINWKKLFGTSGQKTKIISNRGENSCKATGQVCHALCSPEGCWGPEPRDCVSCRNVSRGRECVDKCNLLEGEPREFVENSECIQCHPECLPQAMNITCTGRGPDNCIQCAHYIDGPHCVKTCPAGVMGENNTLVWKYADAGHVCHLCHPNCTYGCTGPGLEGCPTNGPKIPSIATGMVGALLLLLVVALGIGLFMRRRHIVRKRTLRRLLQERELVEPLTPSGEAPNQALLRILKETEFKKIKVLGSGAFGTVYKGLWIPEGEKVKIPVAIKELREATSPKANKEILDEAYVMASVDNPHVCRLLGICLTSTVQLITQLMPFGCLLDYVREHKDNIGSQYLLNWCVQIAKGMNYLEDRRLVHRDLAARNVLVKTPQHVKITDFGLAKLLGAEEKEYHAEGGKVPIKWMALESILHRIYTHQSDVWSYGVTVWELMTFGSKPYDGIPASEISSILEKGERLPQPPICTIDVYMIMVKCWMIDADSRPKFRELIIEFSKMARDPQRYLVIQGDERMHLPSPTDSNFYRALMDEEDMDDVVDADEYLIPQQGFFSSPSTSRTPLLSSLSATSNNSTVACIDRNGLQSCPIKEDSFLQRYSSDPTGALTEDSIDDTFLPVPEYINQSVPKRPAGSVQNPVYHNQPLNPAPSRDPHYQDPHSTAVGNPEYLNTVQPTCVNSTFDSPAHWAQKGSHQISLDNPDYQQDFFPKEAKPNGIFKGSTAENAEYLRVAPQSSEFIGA
Excerpt: as §5, §6
EGFR^WT kinase assay: buffer was prepared, and 3.48 nM 4× EGFR kinase solution, 600 μM 4× ATP solution, and 400 nM 4×ULight™-labeled JAK-1 (Try1023) Peptide substrate solution was prepared using the buffer. After the preparation was completed, the enzyme was mixed with different concentrations of compounds pre-prepared by dilution, and the mixture was left to stand at room temperature for 5 min. Each concentration was performed in duplicate. The corresponding substrate and ATP were added and the mixture was reacted at room temperature for 120 minutes (with negative and positive controls). After completion of the reaction, PT66 detection antibody was added. The mixture was incubated at room temperature for 60 minutes, and then detected by Envision.
as §7

Ba/F3-EGFR-VIII cells = Ba/F3-EGFR-VIII cells (Homo sapiens, UniProt P00533, DELINS30-297G, cells depend on it); test: Inhibition of cell proliferation, CTG method, Ba/F3-EGFR-VIII; format: cell-based; conditions: 72 hours, read-out: Ba/F3 EGFRvIII IC50
Ba/F3-EGFR-VIII cells, sequence (P00533 with tags, fused parts or gaps DELINS30-297G): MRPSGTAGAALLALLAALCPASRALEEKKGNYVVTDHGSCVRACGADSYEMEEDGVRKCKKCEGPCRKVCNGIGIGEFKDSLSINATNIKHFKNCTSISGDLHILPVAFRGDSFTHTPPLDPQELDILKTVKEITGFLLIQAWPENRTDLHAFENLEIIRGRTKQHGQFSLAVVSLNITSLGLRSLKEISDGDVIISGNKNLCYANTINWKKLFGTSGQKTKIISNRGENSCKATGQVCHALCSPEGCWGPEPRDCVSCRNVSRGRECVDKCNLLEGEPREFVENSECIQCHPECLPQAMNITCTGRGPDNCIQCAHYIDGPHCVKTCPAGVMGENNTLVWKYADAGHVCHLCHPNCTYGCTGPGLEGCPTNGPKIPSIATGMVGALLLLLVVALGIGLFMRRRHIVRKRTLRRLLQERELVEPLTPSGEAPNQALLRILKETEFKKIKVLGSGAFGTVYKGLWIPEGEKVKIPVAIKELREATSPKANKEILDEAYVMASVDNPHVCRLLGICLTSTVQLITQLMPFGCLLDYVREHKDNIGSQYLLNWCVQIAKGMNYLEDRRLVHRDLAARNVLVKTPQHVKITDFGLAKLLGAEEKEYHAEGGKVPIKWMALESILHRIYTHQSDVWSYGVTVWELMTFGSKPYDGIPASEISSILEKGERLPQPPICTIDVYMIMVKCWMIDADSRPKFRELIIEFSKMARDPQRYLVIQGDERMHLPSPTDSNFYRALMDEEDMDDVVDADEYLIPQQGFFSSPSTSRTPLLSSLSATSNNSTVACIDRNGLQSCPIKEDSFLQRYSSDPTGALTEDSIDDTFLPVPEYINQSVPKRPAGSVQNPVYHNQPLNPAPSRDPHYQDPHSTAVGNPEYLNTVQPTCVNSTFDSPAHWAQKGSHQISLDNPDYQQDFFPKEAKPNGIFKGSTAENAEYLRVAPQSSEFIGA
Excerpt: as §1, §2, §3, §4

SMILES	IC50 (HCC-827 cells)	IC50 (HER2 kinase)	GI50 [1]	IC50 (EGFR^WT kinase)	GI50 (Ba/F3-EGFR-VIII cells)
COc1c(NC(=O)/C=C/CN(C)C2CC2)ccc2ncnc(Nc3cccc(Cl)c3F)c12 [Example 2, (E)-N-(4-((3-chloro-2-fluorophenyl)amino)-5-methoxyquinazolin-6-yl)-4-(cyclopropyl(methyl)amino)but-2-enamide]	≤ 5 nM	100 to 1000 nM	50 to 500 nM	1 to 10 nM	5 to 50 nM
COCCOc1c(NC(=O)/C=C/CN(C)C)ccc2ncnc(Nc3cccc(Cl)c3F)c12 [Example 3, (E)-N-(4-((3-chloro-2-fluorophenyl)amino)-5-(2-methoxyethoxy)quinazolin-6-yl)-4-(dimethylamino)but-2-enamide]	≤ 5 nM	10 to 100 nM	50 to 500 nM	≤ 1 nM	≤ 5 nM
CN(C)C/C=C/C(=O)Nc1ccc2ncnc(Nc3cccc(Cl)c3F)c2c1OCCF [Example 4, (E)-N-(4-((3-chloro-2-fluorophenyl)amino)-5-(2-fluoroethoxy)quinazolin-6-yl)-4-(dimethylamino)but-2-enamide]	≤ 5 nM	10 to 100 nM	50 to 500 nM	≤ 1 nM	5 to 50 nM
CN(C)C/C=C/C(=O)Nc1ccc2ncnc(Nc3cccc(Cl)c3F)c2c1OCCO [Example 5, (E)-N-(4-((3-chloro-2-fluorophenyl)amino)-5-(2-hydroxyethoxy)quinazolin-6-yl)-4-(dimethylamino)but-2-enamide]	≤ 5 nM	10 to 100 nM	5 to 50 nM	≤ 1 nM	≤ 5 nM
COCCCOc1c(NC(=O)/C=C/CN(C)C)ccc2ncnc(Nc3cccc(Cl)c3F)c12 [Example 6, (E)-N-(4-((3-chloro-2-fluorophenyl)amino)-5-(3-methoxypropoxy)quinazolin-6-yl)-4-(dimethylamino)but-2-enamide]	≤ 5 nM	100 to 1000 nM	50 to 500 nM	≤ 1 nM	5 to 50 nM
CN(C)C/C=C/C(=O)Nc1ccc2ncnc(Nc3cccc(Cl)c3F)c2c1OCCCS(C)(=O)=O [Example 7, (E)-N-(4-((3-chloro-2-fluorophenyl)amino)-5-(3-(methylsulfonyl)propoxy)quinazolin-6-yl)-4-(dimethylamino)but-2-enamide]	≤ 5 nM	100 to 1000 nM		≤ 1 nM	5 to 50 nM
COc1c(NC(=O)/C=C/CN(C)C(C)C)ccc2ncnc(Nc3cccc(Cl)c3F)c12 [Example 8, (E)-N-(4-((3-chloro-2-fluorophenyl)amino)-5-methoxyquinazolin-6-yl)-4-(isopropyl(methyl)amino)but-2-enamide]	≤ 5 nM	10 to 100 nM	50 to 500 nM	≤ 1 nM	5 to 50 nM
COc1c(NC(=O)/C=C/CNC(C)C)ccc2ncnc(Nc3cccc(Cl)c3F)c12 [Example 9, (E)-N-(4-((3-chloro-2-fluorophenyl)amino)-5-methoxyquinazolin-6-yl)-4-(isopropylamino)but-2-enamide]	≤ 5 nM	10 to 100 nM	5 to 50 nM	≤ 1 nM	≤ 5 nM
CSCCOc1c(NC(=O)/C=C/CN(C)C)ccc2ncnc(Nc3cccc(Cl)c3F)c12 [Example 12, (E)-N-(4-((3-chloro-2-fluorophenyl)amino)-5-(2-(methylthio)ethoxy)quinazolin-6-yl)-4-(dimethylamino)but-2-enamide]	5 to 50 nM	10 to 100 nM		≤ 1 nM	5 to 50 nM
COc1c(NC(=O)/C=C/[C@H]2CCCN2C)ccc2ncnc(Nc3ccc(Cl)c(Cl)c3F)c12 [Example 20, (R,E)-N-(4-((3,4-dichloro-2-fluorophenyl)amino)-5-methoxyquinazolin-6-yl)-3-(1-methylpyrrolidin-2-yl)acrylamide]	≤ 5 nM	1 to 10 nM	50 to 500 nM	≤ 1 nM	
CN(C)C/C=C/C(=O)Nc1ccc2ncnc(Nc3ccc(Cl)c(Cl)c3F)c2c1OCCO [Example 21, (E)-N-(4-((3,4-dichloro-2-fluorophenyl)amino)-5-(2-hydroxyethoxy)quinazolin-6-yl)-4-(dimethylamino)but-2-enamide]	≤ 5 nM	10 to 100 nM	5 to 50 nM	≤ 1 nM	
CN1CCC[C@@H]1/C=C/C(=O)Nc1ccc2ncnc(Nc3ccc(Cl)c(Cl)c3F)c2c1OCCO [Example 22, (R,E)-N-(4-((3,4-dichloro-2-fluorophenyl)amino)-5-(2-hydroxyethoxy)quinazolin-6-yl)-3-(1-methylpyrrolidin-2-yl)acrylamide]	≤ 5 nM	1 to 10 nM	5 to 50 nM	≤ 1 nM	
COCCOc1c(NC(=O)/C=C/CN(C)C)ccc2ncnc(Nc3ccc(Cl)c(Cl)c3F)c12 [Example 23, (E)-N-(4-((3,4-dichloro-2-fluorophenyl)amino)-5-(2-methoxyethoxy)quinazolin-6-yl)-4-(dimethylamino)but-2-enamide]	≤ 5 nM	10 to 100 nM	50 to 500 nM	≤ 1 nM	
COCCOc1c(NC(=O)/C=C/[C@H]2CCCN2C)ccc2ncnc(Nc3ccc(Cl)c(Cl)c3F)c12 [Example 24, (R,E)-N-(4-((3,4-dichloro-2-fluorophenyl)amino)-5-(2-methoxyethoxy)quinazolin-6-yl)-3-(1-methylpyrrolidin-2-yl)acrylamide]	≤ 5 nM	10 to 100 nM	50 to 500 nM	≤ 1 nM	
